Measurements: ChEMBL document CHEMBL2010712, “Design and synthesis of orally available MEK inhibitors with potent in vivo antitumor efficacy” (Bioorg Med Chem Lett, 2012)
Activity calls are given as the source filed them. No cut-off for these calls is given here.

Tested on: Rattus norvegicus
Assay: Dose normalized AUC in rat at 1 mg/kg, iv and 5 mg/kg, po
Format: ADME, organism-based
Conditions: in vivo

AUC/dose [ng·h/mL/mg/kg] | SMILES
512 | C#Cc1ccc(Nc2c(C(=O)NOCCO)c3c(n2C)C(=O)CC3)c(F)c1
262 | O=C(NOCCO)c1c(Nc2ccc(I)cc2F)c(F)c(=O)n2c1CCC2

Tested on: not listed separately
Assay: Oral bioavailability in rat at 5 mg/kg
Format: ADME, organism-based
Conditions: in vivo

bioavailability [%] | SMILES
51 | C#Cc1ccc(Nc2c(C(=O)NOCCO)c3c(n2C)C(=O)CC3)c(F)c1
21 | O=C(NOCCO)c1c(Nc2ccc(I)cc2F)c(F)c(=O)n2c1CCC2

Tested on: not listed separately
Assay: Half life in rat liver microsomes
Format: ADME, Microsome
Conditions: not given

half-life [h] | SMILES
2.5 | C#Cc1ccc(Nc2c(C(=O)NOCCO)c3c(n2C)C(=O)CC3)c(F)c1
2.07 | O=C(NOCCO)c1c(Nc2ccc(I)cc2F)c(F)c(=O)n2c1CCC2

Tested on: COLO 205
Assay: Cytotoxicity against human COLO205 cells after 72 hrs by MTS assay
Conditions: COLO 205, 72 h

SMILES | EC50 [nM]
C#Cc1ccc(Nc2c(C(=O)NOCCO)c3c(n2C)C(=O)CC3)c(F)c1 | 17
O=C(NOCCO)c1c(Nc2ccc(I)cc2F)c(F)c(=O)n2c1CCC2 | 1

Molecular target: RAC-gamma serine/threonine-protein kinase (Homo sapiens) (UniProt Q9Y243)
Sequence (Q9Y243 whole entry): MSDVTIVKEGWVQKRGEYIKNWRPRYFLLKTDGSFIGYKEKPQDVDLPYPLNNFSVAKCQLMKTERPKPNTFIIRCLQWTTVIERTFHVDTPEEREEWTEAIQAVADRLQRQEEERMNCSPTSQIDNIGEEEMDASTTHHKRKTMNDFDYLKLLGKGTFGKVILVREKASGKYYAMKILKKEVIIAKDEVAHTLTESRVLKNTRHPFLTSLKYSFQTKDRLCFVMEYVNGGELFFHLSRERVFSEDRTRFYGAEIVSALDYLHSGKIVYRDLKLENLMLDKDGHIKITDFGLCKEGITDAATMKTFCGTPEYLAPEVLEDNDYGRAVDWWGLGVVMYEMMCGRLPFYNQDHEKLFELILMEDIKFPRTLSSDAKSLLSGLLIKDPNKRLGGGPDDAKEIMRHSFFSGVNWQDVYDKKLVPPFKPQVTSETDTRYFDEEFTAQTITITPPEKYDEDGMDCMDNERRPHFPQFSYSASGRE
Assay: Inhibition of AKT3 at 10 uM
Conditions: not given

inhibition | SMILES
inactive | C#Cc1ccc(Nc2c(C(=O)NOCCO)c3c(n2C)C(=O)CC3)c(F)c1
inactive | O=C(NOCCO)c1c(Nc2ccc(I)cc2F)c(F)c(=O)n2c1CCC2

Tested on: A-375
Assay: Cytotoxicity against human A375 cells after 72 hrs by MTS assay
Conditions: A-375, 72 h

SMILES | EC50 [nM]
C#Cc1ccc(Nc2c(C(=O)NOCCO)c3c(n2C)C(=O)CC3)c(F)c1 | 34
O=C(NOCCO)c1c(Nc2ccc(I)cc2F)c(F)c(=O)n2c1CCC2 | 3

Molecular target: Angiopoietin-1 receptor (Homo sapiens) (UniProt Q02763)
Assay: Inhibition of Tie2 at 10 uM
Conditions: not given

inhibition | SMILES
inactive | C#Cc1ccc(Nc2c(C(=O)NOCCO)c3c(n2C)C(=O)CC3)c(F)c1
inactive | O=C(NOCCO)c1c(Nc2ccc(I)cc2F)c(F)c(=O)n2c1CCC2

Tested on: not listed separately
Assay: Clearance in rat at 1 mg/kg, iv and 5 mg/kg, po
Format: ADME, organism-based
Conditions: in vivo

clearance [mL/min/kg] | SMILES
15.6 | C#Cc1ccc(Nc2c(C(=O)NOCCO)c3c(n2C)C(=O)CC3)c(F)c1
12.9 | O=C(NOCCO)c1c(Nc2ccc(I)cc2F)c(F)c(=O)n2c1CCC2

Tested on: not listed separately
Assay: Inhibition of cytochrome P450 at 10 uM
Format: ADME
Conditions: not given

inhibition (INH) | SMILES
Not Active | C#Cc1ccc(Nc2c(C(=O)NOCCO)c3c(n2C)C(=O)CC3)c(F)c1
Not Active | O=C(NOCCO)c1c(Nc2ccc(I)cc2F)c(F)c(=O)n2c1CCC2

Molecular target: Glycogen synthase kinase-3 beta (Homo sapiens) (UniProt P49841)
Assay: Inhibition of GSK3beta at 10 uM
Conditions: not given

inhibition | SMILES
inactive | C#Cc1ccc(Nc2c(C(=O)NOCCO)c3c(n2C)C(=O)CC3)c(F)c1
inactive | O=C(NOCCO)c1c(Nc2ccc(I)cc2F)c(F)c(=O)n2c1CCC2

Molecular target: Proto-oncogene tyrosine-protein kinase Src (Homo sapiens) (UniProt P12931)
Assay: Inhibition of cSRC at 10 uM
Conditions: not given

inhibition | SMILES
inactive | C#Cc1ccc(Nc2c(C(=O)NOCCO)c3c(n2C)C(=O)CC3)c(F)c1
inactive | O=C(NOCCO)c1c(Nc2ccc(I)cc2F)c(F)c(=O)n2c1CCC2

Molecular target: Platelet-derived growth factor receptor beta (Homo sapiens) (UniProt P09619)
Assay: Inhibition of PDGFRbeta at 10 uM
Conditions: not given

inhibition | SMILES
inactive | C#Cc1ccc(Nc2c(C(=O)NOCCO)c3c(n2C)C(=O)CC3)c(F)c1
inactive | O=C(NOCCO)c1c(Nc2ccc(I)cc2F)c(F)c(=O)n2c1CCC2

Molecular target: Protein kinase C alpha type (Homo sapiens) (UniProt P17252)
Assay: Inhibition of PKCalpha at 10 uM
Conditions: not given

inhibition | SMILES
inactive | C#Cc1ccc(Nc2c(C(=O)NOCCO)c3c(n2C)C(=O)CC3)c(F)c1
inactive | O=C(NOCCO)c1c(Nc2ccc(I)cc2F)c(F)c(=O)n2c1CCC2

Molecular target: Calcium/calmodulin-dependent protein kinase type 1D (Homo sapiens) (UniProt Q8IU85)
Sequence (Q8IU85 whole entry, looked up): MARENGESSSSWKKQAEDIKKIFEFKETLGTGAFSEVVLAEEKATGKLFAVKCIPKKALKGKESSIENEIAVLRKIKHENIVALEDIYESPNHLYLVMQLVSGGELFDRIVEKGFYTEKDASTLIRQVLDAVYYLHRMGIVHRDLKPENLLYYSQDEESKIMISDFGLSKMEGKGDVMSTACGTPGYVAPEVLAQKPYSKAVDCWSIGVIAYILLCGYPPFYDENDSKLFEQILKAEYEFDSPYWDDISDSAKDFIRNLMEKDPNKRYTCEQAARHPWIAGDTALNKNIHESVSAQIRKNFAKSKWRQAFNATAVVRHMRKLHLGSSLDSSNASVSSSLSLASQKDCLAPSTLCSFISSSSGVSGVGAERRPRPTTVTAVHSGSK
Assay: Inhibition of CAMK1delta at 10 uM
Conditions: not given

inhibition | SMILES
inactive | C#Cc1ccc(Nc2c(C(=O)NOCCO)c3c(n2C)C(=O)CC3)c(F)c1
inactive | O=C(NOCCO)c1c(Nc2ccc(I)cc2F)c(F)c(=O)n2c1CCC2

Molecular target: RAF proto-oncogene serine/threonine-protein kinase (Homo sapiens) (UniProt P04049)
Assay: Inhibition of c-RAF at 10 uM
Conditions: not given

inhibition | SMILES
inactive | C#Cc1ccc(Nc2c(C(=O)NOCCO)c3c(n2C)C(=O)CC3)c(F)c1
inactive | O=C(NOCCO)c1c(Nc2ccc(I)cc2F)c(F)c(=O)n2c1CCC2

Tested on: not listed separately
Assay: Volume of distribution at steady state in rat at 1 mg/kg, iv and 5 mg/kg, po
Format: ADME, organism-based
Conditions: in vivo, read-out: Vdss

Vd [L/kg] | SMILES
1.19 | C#Cc1ccc(Nc2c(C(=O)NOCCO)c3c(n2C)C(=O)CC3)c(F)c1
0.745 | O=C(NOCCO)c1c(Nc2ccc(I)cc2F)c(F)c(=O)n2c1CCC2

Molecular target: Tyrosine-protein kinase SYK (Homo sapiens) (UniProt P43405)
Assay: Inhibition of Syk at 10 uM
Conditions: not given

inhibition | SMILES
inactive | C#Cc1ccc(Nc2c(C(=O)NOCCO)c3c(n2C)C(=O)CC3)c(F)c1
inactive | O=C(NOCCO)c1c(Nc2ccc(I)cc2F)c(F)c(=O)n2c1CCC2

Molecular target: Epidermal growth factor receptor (Homo sapiens) (UniProt P00533)
Sequence (P00533 whole entry): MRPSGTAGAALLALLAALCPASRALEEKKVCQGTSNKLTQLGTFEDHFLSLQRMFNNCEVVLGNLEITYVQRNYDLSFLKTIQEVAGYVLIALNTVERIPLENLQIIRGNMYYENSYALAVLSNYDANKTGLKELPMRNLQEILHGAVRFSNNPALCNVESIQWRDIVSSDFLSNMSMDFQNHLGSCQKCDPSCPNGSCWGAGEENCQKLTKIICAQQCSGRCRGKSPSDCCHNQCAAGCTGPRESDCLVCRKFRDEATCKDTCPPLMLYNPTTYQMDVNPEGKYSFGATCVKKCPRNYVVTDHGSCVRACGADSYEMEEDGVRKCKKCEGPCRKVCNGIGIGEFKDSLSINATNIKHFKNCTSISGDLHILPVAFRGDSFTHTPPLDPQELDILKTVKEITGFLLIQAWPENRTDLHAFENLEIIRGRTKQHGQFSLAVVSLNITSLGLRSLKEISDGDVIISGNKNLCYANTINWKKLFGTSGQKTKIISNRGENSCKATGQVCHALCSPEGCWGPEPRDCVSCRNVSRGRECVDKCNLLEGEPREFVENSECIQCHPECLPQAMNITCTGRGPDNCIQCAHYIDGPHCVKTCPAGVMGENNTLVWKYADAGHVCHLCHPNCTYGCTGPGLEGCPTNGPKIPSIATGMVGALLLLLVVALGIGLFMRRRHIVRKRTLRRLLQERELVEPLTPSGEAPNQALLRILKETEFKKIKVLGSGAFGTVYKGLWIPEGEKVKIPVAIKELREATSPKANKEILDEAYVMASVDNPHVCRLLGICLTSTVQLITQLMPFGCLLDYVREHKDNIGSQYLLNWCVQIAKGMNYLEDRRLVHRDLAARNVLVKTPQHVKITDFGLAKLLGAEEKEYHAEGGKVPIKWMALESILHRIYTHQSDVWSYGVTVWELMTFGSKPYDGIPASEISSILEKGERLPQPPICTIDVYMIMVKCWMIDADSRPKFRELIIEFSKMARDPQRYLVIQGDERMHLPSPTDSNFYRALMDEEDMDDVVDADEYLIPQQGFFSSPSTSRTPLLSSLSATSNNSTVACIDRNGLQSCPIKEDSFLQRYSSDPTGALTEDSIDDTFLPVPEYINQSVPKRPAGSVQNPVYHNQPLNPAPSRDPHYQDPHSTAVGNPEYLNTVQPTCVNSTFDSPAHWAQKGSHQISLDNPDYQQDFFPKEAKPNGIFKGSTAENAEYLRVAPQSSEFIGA
Assay: Inhibition of EGFR at 10 uM
Conditions: not given

inhibition | SMILES
inactive | C#Cc1ccc(Nc2c(C(=O)NOCCO)c3c(n2C)C(=O)CC3)c(F)c1
inactive | O=C(NOCCO)c1c(Nc2ccc(I)cc2F)c(F)c(=O)n2c1CCC2

Molecular target: Cyclin-dependent kinase 2/cyclin A (Homo sapiens) (UniProt P24941+P20248+P78396)
Assay: Inhibition of CDK2/cyclin A at 10 uM
Format: protein-complex assay
Conditions: not given

inhibition | SMILES
inactive | C#Cc1ccc(Nc2c(C(=O)NOCCO)c3c(n2C)C(=O)CC3)c(F)c1
inactive | O=C(NOCCO)c1c(Nc2ccc(I)cc2F)c(F)c(=O)n2c1CCC2

Molecular target: Insulin receptor (Homo sapiens) (UniProt P06213)
Sequence (P06213 28-758 limits assumed): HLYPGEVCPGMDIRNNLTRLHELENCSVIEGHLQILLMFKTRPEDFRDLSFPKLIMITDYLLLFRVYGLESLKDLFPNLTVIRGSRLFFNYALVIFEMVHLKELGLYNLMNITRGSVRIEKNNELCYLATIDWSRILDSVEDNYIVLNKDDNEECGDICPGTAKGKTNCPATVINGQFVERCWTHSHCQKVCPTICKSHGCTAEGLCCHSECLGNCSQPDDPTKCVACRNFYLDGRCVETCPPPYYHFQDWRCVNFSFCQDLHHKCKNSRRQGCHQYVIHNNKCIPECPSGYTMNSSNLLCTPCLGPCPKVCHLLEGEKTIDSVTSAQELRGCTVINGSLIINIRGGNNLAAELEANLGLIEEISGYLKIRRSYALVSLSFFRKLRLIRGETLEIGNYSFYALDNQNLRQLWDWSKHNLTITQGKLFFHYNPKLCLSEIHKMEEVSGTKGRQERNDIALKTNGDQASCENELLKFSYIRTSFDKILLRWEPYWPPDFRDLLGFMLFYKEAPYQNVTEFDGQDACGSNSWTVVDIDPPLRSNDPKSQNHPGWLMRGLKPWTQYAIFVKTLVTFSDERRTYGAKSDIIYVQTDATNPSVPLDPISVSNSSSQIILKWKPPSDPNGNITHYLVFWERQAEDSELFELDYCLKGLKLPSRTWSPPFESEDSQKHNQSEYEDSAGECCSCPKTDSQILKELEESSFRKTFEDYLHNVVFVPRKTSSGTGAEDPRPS
Sequence (P06213 763-1382 limits assumed): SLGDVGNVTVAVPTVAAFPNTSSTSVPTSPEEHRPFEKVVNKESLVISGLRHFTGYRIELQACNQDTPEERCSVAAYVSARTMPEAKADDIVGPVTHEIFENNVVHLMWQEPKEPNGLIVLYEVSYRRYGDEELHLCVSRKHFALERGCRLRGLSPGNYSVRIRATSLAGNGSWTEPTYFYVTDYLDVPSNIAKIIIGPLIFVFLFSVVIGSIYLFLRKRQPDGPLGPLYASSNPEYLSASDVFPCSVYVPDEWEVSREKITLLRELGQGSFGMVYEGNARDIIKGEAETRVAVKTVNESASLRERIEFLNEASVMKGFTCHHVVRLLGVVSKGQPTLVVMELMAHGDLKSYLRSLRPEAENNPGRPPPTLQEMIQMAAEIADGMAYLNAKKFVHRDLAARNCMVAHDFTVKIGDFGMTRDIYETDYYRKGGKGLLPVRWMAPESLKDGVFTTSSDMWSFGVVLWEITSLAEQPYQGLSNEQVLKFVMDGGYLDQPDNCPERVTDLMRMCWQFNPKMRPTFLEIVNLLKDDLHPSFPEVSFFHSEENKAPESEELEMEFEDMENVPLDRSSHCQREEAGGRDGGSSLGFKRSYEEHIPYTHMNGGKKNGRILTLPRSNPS
Assay: Inhibition of IR at 10 uM
Conditions: not given

inhibition | SMILES
inactive | C#Cc1ccc(Nc2c(C(=O)NOCCO)c3c(n2C)C(=O)CC3)c(F)c1
inactive | O=C(NOCCO)c1c(Nc2ccc(I)cc2F)c(F)c(=O)n2c1CCC2

Molecular target: Serine/threonine-protein kinase PLK3 (Homo sapiens) (UniProt Q9H4B4)
Assay: Inhibition of PLK3 at 10 uM
Conditions: not given

inhibition | SMILES
inactive | C#Cc1ccc(Nc2c(C(=O)NOCCO)c3c(n2C)C(=O)CC3)c(F)c1
inactive | O=C(NOCCO)c1c(Nc2ccc(I)cc2F)c(F)c(=O)n2c1CCC2

Molecular target: Hepatocyte growth factor receptor (Homo sapiens) (UniProt P08581)
Assay: Inhibition of cMET at 10 uM
Conditions: not given

inhibition | SMILES
inactive | C#Cc1ccc(Nc2c(C(=O)NOCCO)c3c(n2C)C(=O)CC3)c(F)c1
inactive | O=C(NOCCO)c1c(Nc2ccc(I)cc2F)c(F)c(=O)n2c1CCC2

Molecular target: 3-phosphoinositide-dependent protein kinase 1 (Homo sapiens) (UniProt O15530)
Assay: Inhibition of PDK1 at 10 uM
Conditions: not given

inhibition | SMILES
inactive | C#Cc1ccc(Nc2c(C(=O)NOCCO)c3c(n2C)C(=O)CC3)c(F)c1
inactive | O=C(NOCCO)c1c(Nc2ccc(I)cc2F)c(F)c(=O)n2c1CCC2

Molecular target: Dual specificity mitogen-activated protein kinase kinase 1 (Homo sapiens, UniProt Q02750)
Assay: Inhibition of MEK1-mediated ERK1 phosphorylation using IPTTPITTYFFFK-5FAM-COOH as substrate by fluorescent polarization assay
Conditions: not given

IC50 [nM] | SMILES
36 | C#Cc1ccc(Nc2c(C(=O)NOCCO)c3c(n2C)C(=O)CC3)c(F)c1
25 | O=C(NOCCO)c1c(Nc2ccc(I)cc2F)c(F)c(=O)n2c1CCC2

Molecular target: Tyrosine-protein kinase ABL1 (Homo sapiens) (UniProt P00519)
Sequence (P00519 whole entry): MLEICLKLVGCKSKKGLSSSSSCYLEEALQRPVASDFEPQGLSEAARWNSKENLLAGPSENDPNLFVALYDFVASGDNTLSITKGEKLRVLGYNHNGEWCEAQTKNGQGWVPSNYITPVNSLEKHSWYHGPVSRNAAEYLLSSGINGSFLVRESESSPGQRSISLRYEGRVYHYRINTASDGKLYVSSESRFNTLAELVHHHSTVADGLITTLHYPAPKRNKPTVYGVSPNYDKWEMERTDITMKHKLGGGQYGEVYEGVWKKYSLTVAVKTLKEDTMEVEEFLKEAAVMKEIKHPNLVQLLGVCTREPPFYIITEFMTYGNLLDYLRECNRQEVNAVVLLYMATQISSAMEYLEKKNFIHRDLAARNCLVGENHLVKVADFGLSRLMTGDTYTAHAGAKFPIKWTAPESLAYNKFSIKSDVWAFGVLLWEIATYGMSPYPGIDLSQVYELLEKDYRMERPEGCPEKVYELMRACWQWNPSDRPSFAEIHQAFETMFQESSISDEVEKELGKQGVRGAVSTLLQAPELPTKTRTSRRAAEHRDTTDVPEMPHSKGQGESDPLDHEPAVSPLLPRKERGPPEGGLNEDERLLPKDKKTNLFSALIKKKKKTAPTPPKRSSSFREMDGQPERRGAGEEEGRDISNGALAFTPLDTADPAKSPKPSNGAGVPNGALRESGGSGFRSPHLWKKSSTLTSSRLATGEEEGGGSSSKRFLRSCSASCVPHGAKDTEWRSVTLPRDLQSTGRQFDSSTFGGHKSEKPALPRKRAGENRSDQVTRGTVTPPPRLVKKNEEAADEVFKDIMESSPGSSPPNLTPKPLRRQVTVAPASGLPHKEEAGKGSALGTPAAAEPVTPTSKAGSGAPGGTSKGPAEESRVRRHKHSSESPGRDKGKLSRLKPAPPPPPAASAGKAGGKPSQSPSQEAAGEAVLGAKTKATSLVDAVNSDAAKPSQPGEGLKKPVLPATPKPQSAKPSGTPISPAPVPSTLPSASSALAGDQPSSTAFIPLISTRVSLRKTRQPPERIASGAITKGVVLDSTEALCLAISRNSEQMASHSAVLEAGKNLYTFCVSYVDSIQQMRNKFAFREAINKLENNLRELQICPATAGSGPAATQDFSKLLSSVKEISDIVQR
Assay: Inhibition of ABL1 at 10 uM
Conditions: not given

inhibition | SMILES
inactive | C#Cc1ccc(Nc2c(C(=O)NOCCO)c3c(n2C)C(=O)CC3)c(F)c1
inactive | O=C(NOCCO)c1c(Nc2ccc(I)cc2F)c(F)c(=O)n2c1CCC2

Molecular target: T1, Tyrosine-protein kinase JAK3 (Homo sapiens) (UniProt P52333)
T1 sequence (whole entry): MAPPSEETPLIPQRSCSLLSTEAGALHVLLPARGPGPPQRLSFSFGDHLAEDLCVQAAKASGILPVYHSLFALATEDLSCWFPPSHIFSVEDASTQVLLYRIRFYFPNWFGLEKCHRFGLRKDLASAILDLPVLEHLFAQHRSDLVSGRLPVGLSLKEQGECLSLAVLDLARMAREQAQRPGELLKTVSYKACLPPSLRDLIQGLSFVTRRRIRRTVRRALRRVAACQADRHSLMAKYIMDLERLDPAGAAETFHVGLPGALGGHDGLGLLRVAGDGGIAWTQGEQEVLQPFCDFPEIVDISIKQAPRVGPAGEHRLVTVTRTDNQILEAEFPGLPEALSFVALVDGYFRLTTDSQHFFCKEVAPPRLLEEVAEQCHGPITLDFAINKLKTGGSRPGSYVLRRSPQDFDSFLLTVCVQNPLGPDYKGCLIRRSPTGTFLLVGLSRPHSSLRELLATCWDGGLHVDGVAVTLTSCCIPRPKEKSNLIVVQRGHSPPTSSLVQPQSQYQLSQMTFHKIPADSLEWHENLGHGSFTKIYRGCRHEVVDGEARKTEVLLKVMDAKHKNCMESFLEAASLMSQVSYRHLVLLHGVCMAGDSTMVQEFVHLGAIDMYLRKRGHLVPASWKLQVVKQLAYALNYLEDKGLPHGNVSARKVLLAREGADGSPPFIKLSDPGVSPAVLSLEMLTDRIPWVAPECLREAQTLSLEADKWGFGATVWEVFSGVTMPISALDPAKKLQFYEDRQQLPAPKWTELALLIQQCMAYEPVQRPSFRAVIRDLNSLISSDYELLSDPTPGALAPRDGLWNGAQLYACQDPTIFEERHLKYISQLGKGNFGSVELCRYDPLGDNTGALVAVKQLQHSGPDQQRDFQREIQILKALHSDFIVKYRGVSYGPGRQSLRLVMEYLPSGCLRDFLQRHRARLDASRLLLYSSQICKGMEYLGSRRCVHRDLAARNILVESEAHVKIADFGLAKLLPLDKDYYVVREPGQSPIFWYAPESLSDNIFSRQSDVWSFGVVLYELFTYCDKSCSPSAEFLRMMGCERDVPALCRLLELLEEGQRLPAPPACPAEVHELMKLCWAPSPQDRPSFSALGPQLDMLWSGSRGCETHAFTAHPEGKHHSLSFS
Assay: Inhibition of JAK3 at 10 uM
Conditions: not given

inhibition | SMILES
inactive | C#Cc1ccc(Nc2c(C(=O)NOCCO)c3c(n2C)C(=O)CC3)c(F)c1
inactive | O=C(NOCCO)c1c(Nc2ccc(I)cc2F)c(F)c(=O)n2c1CCC2

Tested on: not listed separately
Assay: Half life in human liver microsomes
Format: ADME, Microsome
Conditions: not given

half-life [h] | SMILES
1.78 | C#Cc1ccc(Nc2c(C(=O)NOCCO)c3c(n2C)C(=O)CC3)c(F)c1
> 3.33 | O=C(NOCCO)c1c(Nc2ccc(I)cc2F)c(F)c(=O)n2c1CCC2

Molecular target: Mitogen-activated protein kinase 14 (Homo sapiens) (UniProt Q16539)
Sequence (Q16539 whole entry): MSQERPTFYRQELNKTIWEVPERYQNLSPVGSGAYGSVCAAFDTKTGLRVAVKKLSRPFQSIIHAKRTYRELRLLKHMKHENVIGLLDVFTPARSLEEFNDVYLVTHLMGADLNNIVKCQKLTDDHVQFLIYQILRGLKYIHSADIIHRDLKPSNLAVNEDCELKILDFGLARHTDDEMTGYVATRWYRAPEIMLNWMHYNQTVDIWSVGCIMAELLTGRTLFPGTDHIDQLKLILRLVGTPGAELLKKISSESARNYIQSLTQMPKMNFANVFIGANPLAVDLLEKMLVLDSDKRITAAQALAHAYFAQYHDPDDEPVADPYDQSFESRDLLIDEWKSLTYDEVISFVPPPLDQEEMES
Assay: Inhibition of p38alpha at 10 uM
Conditions: not given

inhibition | SMILES
inactive | C#Cc1ccc(Nc2c(C(=O)NOCCO)c3c(n2C)C(=O)CC3)c(F)c1
inactive | O=C(NOCCO)c1c(Nc2ccc(I)cc2F)c(F)c(=O)n2c1CCC2
